Experimental data: ChEMBL document CHEMBL4052759, “Discovery of DS79182026: A potent orally active hepcidin production inhibitor” (Bioorg Med Chem Lett, 2017)
Values belong to the molecule of their own block, whether it stands above or below them.

Legend:
[1] = target: Ribosomal protein S6 kinase alpha-1 (Homo sapiens) (UniProt Q15418); experiment: Inhibition of RSK1 (unknown origin) at 0.078 uM relative to control
[2] = target: NUAK family SNF1-like kinase 1 (Homo sapiens) (UniProt O60285); experiment: Inhibition of NuaK1 (unknown origin) at 0.49 uM relative to control
[3] = target: SRSF protein kinase 3 (Homo sapiens) (UniProt Q9UPE1); experiment: Inhibition of MSSK1 (unknown origin) at 0.49 uM relative to control
[4] = target: Aurora kinase C (Homo sapiens) (UniProt Q9UQB9); experiment: Inhibition of AurC (unknown origin) at 0.49 uM relative to control
[5] = target: Inhibitor of nuclear factor kappa-B kinase subunit epsilon (Homo sapiens) (UniProt Q14164); experiment: Inhibition of IKBKE (unknown origin) at 0.49 uM relative to control
[6] = target: Tyrosine-protein kinase BTK (Homo sapiens) (UniProt Q06187); experiment: Inhibition of BTK (unknown origin) at 0.49 uM relative to control
[7] = tested on: Platelet-derived growth factor receptor alpha (Homo sapiens), P16234 [D842V]; experiment: Inhibition of PDGFRA D842V mutant (unknown origin) at 0.49 uM relative to control
[8] = target: Calcium/calmodulin-dependent protein kinase type II subunit gamma (Homo sapiens) (UniProt Q13555); experiment: Inhibition of CaMK2-gamma (unknown origin) at 0.49 uM relative to control
[9] = target: T1, cGMP-dependent protein kinase 1 (Homo sapiens) (UniProt Q13976); experiment: Inhibition of PKG-alpha (unknown origin) at 0.49 uM relative to control
T1 sequence (whole entry): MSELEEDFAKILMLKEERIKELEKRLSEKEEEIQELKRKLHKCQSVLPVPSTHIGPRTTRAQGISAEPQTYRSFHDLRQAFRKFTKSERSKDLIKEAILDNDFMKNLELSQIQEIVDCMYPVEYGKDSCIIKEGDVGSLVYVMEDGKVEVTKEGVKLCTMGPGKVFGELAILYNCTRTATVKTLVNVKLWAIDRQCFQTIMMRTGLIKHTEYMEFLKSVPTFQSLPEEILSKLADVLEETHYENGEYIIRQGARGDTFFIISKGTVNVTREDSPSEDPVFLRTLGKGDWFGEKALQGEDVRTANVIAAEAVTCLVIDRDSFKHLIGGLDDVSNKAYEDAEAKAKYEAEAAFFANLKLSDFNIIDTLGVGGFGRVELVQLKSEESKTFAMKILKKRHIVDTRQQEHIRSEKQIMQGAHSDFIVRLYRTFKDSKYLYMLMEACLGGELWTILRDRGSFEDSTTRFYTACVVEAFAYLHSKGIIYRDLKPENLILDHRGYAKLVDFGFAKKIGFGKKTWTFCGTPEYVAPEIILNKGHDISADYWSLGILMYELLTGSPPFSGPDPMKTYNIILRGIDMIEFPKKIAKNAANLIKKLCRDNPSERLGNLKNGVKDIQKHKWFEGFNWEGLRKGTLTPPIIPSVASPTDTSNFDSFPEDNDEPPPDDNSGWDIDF

[10] = target: Tyrosine-protein kinase Yes (Homo sapiens) (UniProt P07947); experiment: Inhibition of Yes (unknown origin) at 0.49 uM relative to control
[11] = target: Serine/threonine-protein kinase D3 (Homo sapiens) (UniProt O94806); experiment: Inhibition of PKD3 (unknown origin) at 0.49 uM relative to control
[12] = target: Cytoplasmic tyrosine-protein kinase BMX (Homo sapiens) (UniProt P51813); experiment: Inhibition of BMX (unknown origin) at 0.49 uM relative to control
[13] = tested on: Tyrosine-protein kinase ABL1 (Homo sapiens), P00519 [Y253F]; experiment: Inhibition of ABL1 Y253F mutant (unknown origin) at 0.49 uM relative to control
[14] = tested on: Fibroblast growth factor receptor 1 (Homo sapiens), P11362 [V561M]; experiment: Inhibition of FGFR1 V561M mutant (unknown origin) at 0.49 uM relative to control
[15] = target: High affinity nerve growth factor receptor (Homo sapiens) (UniProt P04629); experiment: Inhibition of TRKA (unknown origin) at 0.45 uM relative to control
[16] = target: Cytoplasmic tyrosine-protein kinase BMX (Homo sapiens) (UniProt P51813); experiment: Inhibition of BMX (unknown origin) at 0.45 uM relative to control
[17] = target: Insulin-like growth factor 1 receptor (Homo sapiens) (UniProt P08069); experiment: Inhibition of IGF1R (unknown origin) at 0.45 uM relative to control
[18] = target: Serine/threonine-protein kinase D1 (Homo sapiens) (UniProt Q15139); experiment: Inhibition of PKD1 (unknown origin) at 0.45 uM relative to control
[19] = target: Protein kinase C theta type (Homo sapiens) (UniProt Q04759); experiment: Inhibition of PKC-theta (unknown origin) at 0.45 uM relative to control
[20] = target: Mitogen-activated protein kinase 13 (Homo sapiens) (UniProt O15264); experiment: Inhibition of p38-delta (unknown origin) at 0.45 uM relative to control
[21] = target: Mitogen-activated protein kinase kinase kinase kinase 5 (Homo sapiens) (UniProt Q9Y4K4); experiment: Inhibition of KHS1 (unknown origin) at 0.45 uM relative to control
[22] = target: Protein kinase C delta type (Homo sapiens) (UniProt Q05655); experiment: Inhibition of PKC-delta (unknown origin) at 0.45 uM relative to control
[23] = target: Fibroblast growth factor receptor 2 (Homo sapiens) (UniProt P21802); experiment: Inhibition of FGFR2 (unknown origin) at 0.45 uM relative to control
[24] = target: Casein kinase I isoform gamma-2 (Homo sapiens) (UniProt P78368); experiment: Inhibition of Casein kinase 1g2 (unknown origin) at 0.45 uM relative to control
[25] = tested on: Platelet-derived growth factor receptor alpha (Homo sapiens), P16234 [V561D]; experiment: Inhibition of PDGFRA V561D mutant (unknown origin) at 0.45 uM relative to control
[26] = target: MAP kinase-activated protein kinase 2 (Homo sapiens) (UniProt P49137); experiment: Inhibition of MAPKAPK2 (unknown origin) at 0.45 uM relative to control
[27] = target: Ribosomal protein S6 kinase alpha-4 (Homo sapiens) (UniProt O75676); experiment: Inhibition of MSK2 (unknown origin) at 0.45 uM relative to control
[28] = target: Cyclin-dependent kinase 1/cyclin B1 (Homo sapiens) (UniProt P06493+P14635); experiment: Inhibition of CDK1/Cycline B1 (unknown origin) at 0.45 uM relative to control; assay type: protein-complex assay
[29] = target: CDK6/cyclin D3 (Homo sapiens) (UniProt P30281+Q00534); experiment: Inhibition of CDK6/CyclinD3 (unknown origin) at 0.45 uM relative to control; assay type: protein-complex assay
[30] = target: Serine/threonine-protein kinase pim-3 (Homo sapiens) (UniProt Q86V86); experiment: Inhibition of PIM3 (unknown origin) at 0.45 uM relative to control

Cytoplasmic tyrosine-protein kinase BMX (Homo sapiens), sequence (P51813 whole entry): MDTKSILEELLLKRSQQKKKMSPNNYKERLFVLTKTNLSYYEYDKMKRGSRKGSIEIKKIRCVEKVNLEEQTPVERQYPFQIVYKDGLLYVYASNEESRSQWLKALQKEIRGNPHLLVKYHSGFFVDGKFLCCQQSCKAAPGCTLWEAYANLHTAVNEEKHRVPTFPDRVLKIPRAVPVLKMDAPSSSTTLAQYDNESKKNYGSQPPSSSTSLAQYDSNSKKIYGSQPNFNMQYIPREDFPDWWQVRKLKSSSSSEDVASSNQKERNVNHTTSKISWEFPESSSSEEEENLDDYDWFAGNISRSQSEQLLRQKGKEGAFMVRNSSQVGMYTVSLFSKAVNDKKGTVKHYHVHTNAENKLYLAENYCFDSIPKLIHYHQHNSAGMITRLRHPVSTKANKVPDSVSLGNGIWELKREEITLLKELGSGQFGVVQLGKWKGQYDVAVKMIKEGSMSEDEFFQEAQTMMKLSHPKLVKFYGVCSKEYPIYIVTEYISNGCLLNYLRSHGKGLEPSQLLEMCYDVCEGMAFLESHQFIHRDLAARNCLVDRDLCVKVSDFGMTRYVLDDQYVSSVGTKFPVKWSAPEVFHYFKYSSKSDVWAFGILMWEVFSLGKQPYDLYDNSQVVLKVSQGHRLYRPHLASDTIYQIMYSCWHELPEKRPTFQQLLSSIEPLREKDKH
Insulin-like growth factor 1 receptor (Homo sapiens), sequence (P08069 31-736 limits assumed): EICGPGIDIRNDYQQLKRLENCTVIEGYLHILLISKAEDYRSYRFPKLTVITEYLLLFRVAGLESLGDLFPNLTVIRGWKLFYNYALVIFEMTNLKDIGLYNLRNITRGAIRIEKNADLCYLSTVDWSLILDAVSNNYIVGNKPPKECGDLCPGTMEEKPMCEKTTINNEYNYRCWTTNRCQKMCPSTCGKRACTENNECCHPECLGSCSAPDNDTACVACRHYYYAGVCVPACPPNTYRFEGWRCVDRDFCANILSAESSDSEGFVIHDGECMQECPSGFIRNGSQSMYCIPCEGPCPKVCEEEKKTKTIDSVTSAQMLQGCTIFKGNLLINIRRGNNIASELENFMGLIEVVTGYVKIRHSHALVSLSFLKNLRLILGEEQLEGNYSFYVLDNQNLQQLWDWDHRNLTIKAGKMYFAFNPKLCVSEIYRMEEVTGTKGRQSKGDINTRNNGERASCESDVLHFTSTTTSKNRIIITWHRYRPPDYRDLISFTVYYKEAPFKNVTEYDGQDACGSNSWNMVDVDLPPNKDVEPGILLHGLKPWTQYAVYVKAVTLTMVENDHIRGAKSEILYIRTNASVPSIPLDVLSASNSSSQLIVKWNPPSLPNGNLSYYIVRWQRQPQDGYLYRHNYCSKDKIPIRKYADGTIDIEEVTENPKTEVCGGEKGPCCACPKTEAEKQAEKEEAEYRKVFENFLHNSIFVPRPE
Insulin-like growth factor 1 receptor (Homo sapiens), sequence (P08069 741-1367 limits assumed): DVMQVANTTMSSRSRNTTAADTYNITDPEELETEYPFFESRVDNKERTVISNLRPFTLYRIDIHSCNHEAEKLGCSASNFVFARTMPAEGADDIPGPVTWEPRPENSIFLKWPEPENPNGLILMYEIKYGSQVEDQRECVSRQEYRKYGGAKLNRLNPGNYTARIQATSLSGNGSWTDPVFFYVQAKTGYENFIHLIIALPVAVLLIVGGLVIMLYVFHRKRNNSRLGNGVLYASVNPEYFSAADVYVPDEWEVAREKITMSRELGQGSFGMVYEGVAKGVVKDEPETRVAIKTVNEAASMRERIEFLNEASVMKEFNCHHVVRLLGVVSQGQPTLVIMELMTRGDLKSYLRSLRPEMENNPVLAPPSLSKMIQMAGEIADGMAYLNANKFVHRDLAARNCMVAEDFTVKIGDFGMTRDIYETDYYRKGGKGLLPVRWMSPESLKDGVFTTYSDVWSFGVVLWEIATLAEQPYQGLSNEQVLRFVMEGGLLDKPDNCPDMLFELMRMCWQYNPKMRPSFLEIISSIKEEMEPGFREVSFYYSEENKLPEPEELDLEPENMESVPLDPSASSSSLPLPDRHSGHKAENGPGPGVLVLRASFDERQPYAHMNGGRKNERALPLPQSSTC
Protein kinase C delta type (Homo sapiens), sequence (Q05655 whole entry, looked up): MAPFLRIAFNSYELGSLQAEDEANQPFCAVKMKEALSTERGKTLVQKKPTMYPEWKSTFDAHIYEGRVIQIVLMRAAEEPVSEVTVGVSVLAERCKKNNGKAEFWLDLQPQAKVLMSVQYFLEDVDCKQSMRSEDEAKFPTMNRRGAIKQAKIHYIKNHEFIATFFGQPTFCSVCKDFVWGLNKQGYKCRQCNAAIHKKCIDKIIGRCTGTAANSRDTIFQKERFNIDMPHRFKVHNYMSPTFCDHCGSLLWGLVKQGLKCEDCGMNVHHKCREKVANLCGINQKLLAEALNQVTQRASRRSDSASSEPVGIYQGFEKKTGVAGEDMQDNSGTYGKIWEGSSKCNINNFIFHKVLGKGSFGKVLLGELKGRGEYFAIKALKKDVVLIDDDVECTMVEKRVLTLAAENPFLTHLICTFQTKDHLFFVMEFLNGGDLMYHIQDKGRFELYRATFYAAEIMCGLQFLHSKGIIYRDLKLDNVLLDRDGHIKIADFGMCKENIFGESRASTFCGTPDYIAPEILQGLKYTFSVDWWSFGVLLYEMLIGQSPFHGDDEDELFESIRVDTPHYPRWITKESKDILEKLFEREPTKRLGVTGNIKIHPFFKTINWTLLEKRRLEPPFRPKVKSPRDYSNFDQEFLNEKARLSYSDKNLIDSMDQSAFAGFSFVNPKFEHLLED
Inhibitor of nuclear factor kappa-B kinase subunit epsilon (Homo sapiens), sequence (Q14164 whole entry): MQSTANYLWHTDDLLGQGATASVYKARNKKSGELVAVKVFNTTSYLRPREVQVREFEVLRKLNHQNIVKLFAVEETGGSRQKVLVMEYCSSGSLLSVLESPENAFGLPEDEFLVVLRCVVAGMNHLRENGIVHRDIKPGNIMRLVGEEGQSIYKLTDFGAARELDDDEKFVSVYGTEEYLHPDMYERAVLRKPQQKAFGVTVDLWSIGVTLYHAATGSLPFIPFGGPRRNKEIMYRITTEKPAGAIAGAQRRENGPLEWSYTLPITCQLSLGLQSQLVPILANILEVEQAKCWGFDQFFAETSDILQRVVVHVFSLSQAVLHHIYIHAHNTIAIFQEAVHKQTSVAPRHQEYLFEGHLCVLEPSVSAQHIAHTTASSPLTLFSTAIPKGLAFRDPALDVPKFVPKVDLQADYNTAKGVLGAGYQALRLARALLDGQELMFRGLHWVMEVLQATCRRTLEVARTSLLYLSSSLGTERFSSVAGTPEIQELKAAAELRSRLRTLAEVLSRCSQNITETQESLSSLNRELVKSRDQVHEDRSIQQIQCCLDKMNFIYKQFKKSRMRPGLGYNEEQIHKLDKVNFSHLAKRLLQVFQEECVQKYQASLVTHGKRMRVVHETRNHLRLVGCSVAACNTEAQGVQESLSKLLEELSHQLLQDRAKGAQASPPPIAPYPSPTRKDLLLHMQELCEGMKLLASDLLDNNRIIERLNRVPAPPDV
Casein kinase I isoform gamma-2 (Homo sapiens), sequence (P78368 whole entry, looked up, canonical isoform): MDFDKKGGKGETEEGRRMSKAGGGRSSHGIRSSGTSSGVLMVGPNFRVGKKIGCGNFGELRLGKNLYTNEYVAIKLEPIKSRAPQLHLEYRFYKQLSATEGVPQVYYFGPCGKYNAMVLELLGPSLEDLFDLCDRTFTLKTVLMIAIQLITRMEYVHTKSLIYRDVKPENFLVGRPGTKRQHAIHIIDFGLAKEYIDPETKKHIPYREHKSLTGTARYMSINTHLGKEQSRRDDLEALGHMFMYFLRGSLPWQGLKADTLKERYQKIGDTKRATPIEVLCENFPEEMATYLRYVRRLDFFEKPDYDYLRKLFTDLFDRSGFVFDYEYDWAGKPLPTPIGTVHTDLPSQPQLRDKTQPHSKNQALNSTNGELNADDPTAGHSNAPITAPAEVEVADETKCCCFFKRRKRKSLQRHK
Mitogen-activated protein kinase kinase kinase kinase 5 (Homo sapiens), sequence (Q9Y4K4 whole entry, looked up): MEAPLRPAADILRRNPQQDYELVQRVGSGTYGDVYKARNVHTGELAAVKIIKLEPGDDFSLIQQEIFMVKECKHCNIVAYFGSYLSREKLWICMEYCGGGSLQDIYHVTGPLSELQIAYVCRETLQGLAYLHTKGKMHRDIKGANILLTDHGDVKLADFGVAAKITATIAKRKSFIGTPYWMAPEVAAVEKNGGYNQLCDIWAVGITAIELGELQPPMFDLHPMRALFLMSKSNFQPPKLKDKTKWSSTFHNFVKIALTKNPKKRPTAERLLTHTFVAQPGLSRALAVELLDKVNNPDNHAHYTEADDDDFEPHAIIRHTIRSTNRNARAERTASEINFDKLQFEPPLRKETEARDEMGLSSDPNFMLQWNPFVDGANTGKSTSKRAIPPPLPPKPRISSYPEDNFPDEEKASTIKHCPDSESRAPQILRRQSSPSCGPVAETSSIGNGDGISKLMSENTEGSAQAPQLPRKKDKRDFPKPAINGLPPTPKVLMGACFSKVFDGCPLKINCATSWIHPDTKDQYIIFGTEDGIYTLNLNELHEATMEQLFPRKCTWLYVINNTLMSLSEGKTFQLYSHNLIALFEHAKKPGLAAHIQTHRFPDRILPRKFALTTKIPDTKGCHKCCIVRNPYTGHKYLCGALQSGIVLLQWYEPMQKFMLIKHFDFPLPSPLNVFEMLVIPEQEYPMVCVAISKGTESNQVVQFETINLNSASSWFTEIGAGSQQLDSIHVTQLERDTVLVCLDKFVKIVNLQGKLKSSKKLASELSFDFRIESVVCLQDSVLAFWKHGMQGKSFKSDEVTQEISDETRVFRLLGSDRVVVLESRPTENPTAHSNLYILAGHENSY

- inhibition [1]: 0.3%
Compound: COC(=O)Nc1noc2cc(-c3c(-c4ccccn4)n[nH]c3C)ccc12

- inhibition [2]: 5.7%
- inhibition [3]: 4%
- inhibition [4]: -3.3%
- inhibition [5]: 1.7%
- inhibition [6]: 0.3%
- inhibition [7]: 31.7%
- inhibition [8]: 6%
- inhibition [9]: 0%
- inhibition [10]: -8%
- inhibition [11]: -4.3%
- inhibition [12]: -0.7%
- inhibition [13]: 24.3%
- inhibition [14]: 3.7%
Compound: Cc1[nH]nc(C2CC2)c1-c1ccc2c(NC(=O)C3CC3)noc2c1

- inhibition [15]: 93.7%
- inhibition [16]: 4.7%
- inhibition [17]: 3%
- inhibition [18]: 1.3%
- inhibition [19]: 3%
- inhibition [20]: 4.3%
- inhibition [21]: 85%
- inhibition [22]: 5.3%
- inhibition [23]: 21.7%
- inhibition [24]: 0.7%
- inhibition [25]: 30%
- inhibition [26]: 0.3%
- inhibition [27]: -3.3%
- inhibition [28]: 1.3%
- inhibition [29]: 5.3%
- inhibition [30]: -2.3%
Compound: Cc1n[nH]c(C)c1-c1ccc2c(NC(=O)c3ccc(N4CCN(C)CC4)cc3)n[nH]c2c1
